Laboratory results as given in publication PMC9995496, “A screen for MeCP2-TBL1 interaction inhibitors using a luminescence-based assay” (Scientific Reports, 2023).
Where a name gives a salt, the structure may show the parent alone. Read-outs that look alike come from different tables or passages of the source. Square brackets hold non-standard residues; d marks the D form. Peptide text beside a SMILES is read from it. * marks the point of attachment. ξ: configuration not given here. Nva = CCC[C@H](N)C(=O)O; Cbz = O=C(OCc1ccccc1)*; ξL = CC(C)CC(N)C(=O)O; ξM = CSCCC(N)C(=O)O

System: PRKACA-PRKAR2A interaction (SmBiT-PRKACA / LgBiT-PRKAR2A), protein kinase A
Design: NanoLuc complementation counter-screen in cell extract, PRKACA with PRKAR2A, loss of luminescence, detects NanoLuc interference
Conditions: 0.5 h, 20 µM, inhibitor
[1] = counter-screen for NanoLuc interference
[2] = counter-screen for NanoLuc interference, Inh (PKA)

CC(C)(F)C[C@H](N[C@@H](c1ccc(-c2ccc(S(C)(=O)=O)cc2)cc1)C(F)(F)F)C(=O)NC1(C#N)CC1 [UM0141461:01, Odanacatib (MK-0822)]
Inh (PKA) [1]: 3.507%

Nc1nc(=O)c2c([nH]1)NCC(CNc1ccc(C(=O)N[C@@H](CCC(=O)O)C(=O)O)cc1)N2C=O (stereo partly shown) [UM0141462:01, Leucovorin Calcium]
Inh (PKA) [1]: 1.727%

CN[C@H]1C[C@@H](N)[C@H](O)[C@@H](O[C@@H]2O[C@H](CO)[C@H](O)[C@@H]3OC4(O[C@H]23)O[C@H]([C@@H](N)CO)[C@H](O)[C@H](O)[C@H]4O)[C@@H]1O (stereo partly shown) [UM0141464:01, Hygromycin B]
Inh (PKA) [1]: 0.3498%

NC[C@H]1O[C@H](O[C@H]2[C@H](O)[C@@H](O[C@H]3O[C@H](CO)[C@@H](O)[C@H](N)[C@H]3O)[C@H](N)C[C@@H]2N)[C@H](O)[C@@H](O)[C@@H]1O [UM0141465:01, Kanamycin Sulfate]
Inh (PKA) [1]: 1.064%

Cc1ccc(Sc2ccccc2N2CCNCC2)c(C)c1 [UM0141466:01, Vortioxetine (Lu AA21004) HBr]
Inh (PKA) [1]: 18.25%

CC(=O)N[C@@H](CC(C)C)C(=O)N[C@@H](CC(C)C)C(=O)N[C@H](C=O)CCCNC(=N)N [UM0141467:01, Leupeptin, Microbial]
Inh (PKA) [1]: 0.9653%

CC(C)C[C@H](NC(=O)[C@@H](O)[C@H](N)Cc1ccccc1)C(=O)O [UM0141468:01, Bestatin]
Inh (PKA) [1]: 1.556%

CNC(=O)[C@H](Cc1ccccc1)NC(=O)[C@H](CC(C)C)[C@H](CSc1cccs1)C(=O)NO [UM0141470:01, Batimastat (BB-94)]
Inh (PKA) [1]: 1.977%

CC(C)C[C@@H](C=O)NC(=O)[C@H](CC(C)C)NC(=O)[C@H](CC(C)C)NC(=O)OCc1ccccc1 [UM0141471:01, MG-132] (Cbz-Leu-Leu-Leu-aldehyde)
Inh (PKA) [1]: 6.639%

Cc1cc2c(F)c(Oc3ncnn4cc(OC[C@@H](C)O)c(C)c34)ccc2[nH]1 [UM0141474:01, Brivanib (BMS-540215)]
Inh (PKA) [1]: 42.48%

CSCCC(C=O)NC(=O)C(CC(C)C)NC(=O)[C@H](CC(C)C)NC(C)=O (stereo partly shown) [UM0141476:01, Calpain Inhibitor II, ALLM] (Ac-Leu-[ξL]-[ξM]-aldehyde)
Inh (PKA) [1]: 1.385%

CC[C@H](C)[C@H](NC(=O)[C@H]([C@@H](C)CC)N(C)C(C)=O)C(=O)N[C@H](C(=O)N[C@@H](CC(C)C)C(=O)[C@@]1(C)CO1)[C@@H](C)O [UM0141477:01, Epoxomicin]
Inh (PKA) [1]: 1.438%

CCC[C@@H](C=O)NC(=O)[C@H](CC(C)C)NC(=O)[C@H](CC(C)C)NC(=O)OCc1ccccc1 [UM0141478:01, MG-115] (Cbz-Leu-Leu-[Nva]-aldehyde)
Inh (PKA) [1]: 4.161%

Cc1cc2c(F)c(Oc3ncnn4cc(OC[C@@H](C)OC(=O)[C@H](C)N)c(C)c34)ccc2[nH]1 [UM0141479:01, Brivanib Alaninate (BMS-582664)]
Inh (PKA) [1]: 33.56%

CC(C)(CO)c1cc2cc(NC(=O)C3(c4ccc5c(c4)OC(F)(F)O5)CC3)c(F)cc2n1C[C@@H](O)CO [UM0141480:01, VX-661]
Inh (PKA) [1]: 12.93%

Cc1cc(C(C)Nc2ccccc2)c2nc(N3CCOCC3)cc(=O)n2c1 (stereo not shown) [UM0141481:01, TGX-221]
Inh (PKA) [1]: 45.75%

Nc1nc(N)c2nc(-c3cccc(O)c3)c(-c3cccc(O)c3)nc2n1 [UM0141482:01, TG100-115]
Inh (PKA) [1]: 37.25%

CN(C)CCN1C(=O)c2cccc3cc(N)cc(c23)C1=O [UM0141483:01, Amonafide]
Inh (PKA) [1]: 12.14%

O=C(Nc1cccc(Nc2ncc(Br)c(NCCc3cnc[nH]3)n2)c1)N1CCCC1 [UM0141484:01, BX-912]
Inh (PKA) [1]: 45.28%

Cc1c(NC(=O)OC[C@@H]2COCCN2)cn2ncnc(Nc3ccc4c(cnn4Cc4cccc(F)c4)c3)c12 [UM0141485:01, AC480 (BMS-599626)]
Inh (PKA) [1]: 24.24%

O=C(Nc1ccc(OC(F)(F)F)cc1)c1sccc1NCc1ccnc2ccccc12 [UM0141486:01, OSI-930]
Inh (PKA) [1]: 39.72%

NCC(=O)Nc1ccc(-n2nc(C(F)(F)F)cc2-c2ccc3c(ccc4ccccc43)c2)cc1 [UM0141487:01, OSU-03012 (AR-12)]
Inh (PKA) [1]: 5.116%

NC(=O)Cc1cccc(C(=O)c2ccccc2)c1N [UM0141488:01, Nepafenac]
Inh (PKA) [1]: 7.116%

Cc1ccc(F)c(NC(=O)Nc2ccc(-c3cccc4[nH]nc(N)c34)cc2)c1 [UM0141489:01, Linifanib (ABT-869)]
Inh (PKA) [1]: 45.3%

COc1cc2c(Oc3ccc(NC(=O)C4(C(=O)Nc5ccc(F)cc5)CC4)cc3F)ccnc2cc1OCCCN1CCOCC1 [UM0141490:01, Foretinib (GSK1363089)]
Inh (PKA) [1]: 3.567%

COc1cc2nccc(Oc3ccc(NC(=O)C4(C(=O)Nc5ccc(F)cc5)CC4)cc3)c2cc1OC [UM0141491:01, Cabozantinib (XL184, BMS-907351)]
Inh (PKA) [2]: 10.46%

CCN(CC)C(=O)c1ccc(C2=CC3(CCNCC3)Oc3cccc(O)c32)cc1 [UM0141492:01, ADL5859 HCl]
Inh (PKA) [1]: 2.676%

C=CC(=O)N1CCC[C@@H](n2nc(-c3ccc(Oc4ccccc4)cc3)c3c(N)ncnc32)C1 [UM0141493:01, PCI-32765 (Ibrutinib)]
Inh (PKA) [1]: 23.88%

CC[C@H](Nc1ncnc2[nH]cnc12)c1nc2cccc(F)c2c(=O)n1-c1ccccc1 [UM0141495:01, CAL-101 (Idelalisib, GS-1101)]
Inh (PKA) [1]: 7.222%

CC(C)NC[C@@H](C(=O)N1CCN(c2ncnc3c2[C@H](C)C[C@H]3O)CC1)c1ccc(Cl)cc1 [UM0141496:01, GDC-0068 (RG7440)]
Inh (PKA) [1]: 42.22%

CC1(C)CCC(c2ccc(Cl)cc2)=C(CN2CCN(c3ccc(C(=O)NS(=O)(=O)c4ccc(N[C@H](CCN5CCOCC5)CSc5ccccc5)c(S(=O)(=O)C(F)(F)F)c4)cc3)CC2)C1 [UM0141497:01, ABT-263 (Navitoclax)]
Inh (PKA) [1]: -0.2397%

C[C@@H](N)[C@H]1CC[C@H](C(=O)Nc2ccncc2)CC1 [UM0141498:01, Y-27632 dihydrochloride]
Inh (PKA) [2]: -3.616%

C[C@@H](N)[C@H]1CC[C@H](C(=O)Nc2ccncc2)CC1 [UM0141498:02, Y-27632]
Inh (PKA) [2]: -5.28%

Cc1cnc(-c2cnc(NCCNc3ccc(C#N)cn3)nc2-c2ccc(Cl)cc2Cl)[nH]1 [UM0141499:01, CHIR-99021 (CT99021)]
Inh (PKA) [1]: 50.27%

N#CC[C@H](C1CCCC1)n1cc(-c2ncnc3[nH]ccc23)cn1 [UM0141500:01, Ruxolitinib (INCB018424)]
Inh (PKA) [2]: 28.73%

CCN1CCN(c2ccc(Nc3cc(N(C)C(=O)Nc4c(Cl)c(OC)cc(OC)c4Cl)ncn3)cc2)CC1 [UM0141502:01, BGJ398]
Inh (PKA) [1]: -0.1399%

Nc1cc(C(F)(F)F)c(-c2cc(N3CCOCC3)nc(N3CCOCC3)n2)cn1 [UM0141503:01, BKM120]
Inh (PKA) [1]: 7.459%

CN[C@@H](C)C(=O)N[C@H]1CN(C(=O)CC(C)C)CC[C@H]2CC[C@@H](C(=O)NC(c3ccccc3)c3ccccc3)N2C1=O [UM0141504:01, AT-406 (SM-406)]
Inh (PKA) [1]: 0.8145%

C[C@@H](Oc1cc(-c2cnn(C3CCNCC3)c2)cnc1N)c1c(Cl)ccc(F)c1Cl [UM0141505:01, (R)-Crizotinib]
Inh (PKA) [1]: 10.35%

Nc1ncnc2c1c(I)cn2[C@@H]1O[C@H](CO)[C@@H](O)[C@H]1O [UM0141507:01, 5-Iodotubercidin]
Inh (PKA) [1]: 18.13%

O=C(NC[C@@H]1CN(c2ccc(N3CCOCC3=O)cc2)C(=O)O1)c1ccc(Cl)s1 [UM0141508:01, 5-R-Rivaroxaban]
Inh (PKA) [1]: 3.342%

Cc1n[nH]c2ccc(-c3cncc(OC[C@@H](N)Cc4c[nH]c5ccccc45)c3)cc12 [UM0141510:01, A-443654]
Inh (PKA) [1]: 34.74%

Nc1nc(NC2CC2)c2ncn([C@H]3C=C[C@@H](CO)C3)c2n1 [UM0141511:01, Abacavir]
Inh (PKA) [1]: 2.063%

CN(C)C/C=C/C(=O)Nc1cc2c(Nc3ccc(F)c(Cl)c3)ncnc2cc1O[C@H]1CCOC1 [UM0141512:01, Afatinib dimaleate]
Inh (PKA) [2]: 6.216%

CN(C)C/C=C/C(=O)Nc1cc2c(Nc3ccc(F)c(Cl)c3)ncnc2cc1O[C@H]1CCOC1 [UM0141512:02, Afatinib (BIBW2992)]
Inh (PKA) [2]: 5.289%

O=C(Nc1cccc(C(F)(F)F)c1)Nc1cc(S(=O)(=O)NC2CC2)ccc1-c1ccsc1 [UM0141513:01, AGI-6780]
Inh (PKA) [1]: 24.76%

Cn1c(=O)cc(N2CCC[C@@H](N)C2)n(Cc2ccccc2C#N)c1=O [UM0141514:01, Alogliptin Benzoate]
Inh (PKA) [2]: 3.371%

N#Cc1ccc(Oc2ccc3c(c2)COB3O)cc1 [UM0141516:01, AN-2728]
Inh (PKA) [1]: 2.062%

COc1cc2cc(c1Cl)N(C)C(=O)C[C@H](OC(=O)C(C)C)[C@]1(C)O[C@@H]1[C@H](C)[C@@H]1C[C@@](O)(NC(=O)O1)[C@H](OC)/C=C/C=C(\C)C2 [UM0141517:01, Ansamitocin P-3]
Inh (PKA): 6.121%

N#CC(c1ccnc(OCc2ccc(CN3CCOCC3)cc2)n1)c1nc2ccccc2s1 (stereo not shown) [UM0141518:01, AS 602801]
Inh (PKA) [1]: 8.348%

CC[C@@H]1/C=C(\C)C[C@H](C)C[C@H](OC)[C@H]2O[C@@](O)(C(=O)C(=O)N3CCCC[C@H]3C(=O)O[C@H](/C(C)=C/[C@@H]3CC[C@@H](O)[C@H](OC)C3)[C@H](C)[C@@H](O)CC1=O)[C@H](C)C[C@@H]2OC [UM0141519:01, Ascomycin(FK 520)]
Inh (PKA): 13.3

COc1cc(N2CCC(N3CCN(C)CC3)CC2)ccc1Nc1ncnc(Nc2ccccc2S(=O)(=O)C(C)C)n1 [UM0141520:01, ASP3026]
Inh (PKA) [1]: 2.084%
